We go through 2 compounds from PMC4754833, “Rilpivirine analogs potently inhibit drug-resistant HIV-1 mutants” (Retrovirology, 2016).

One may read the IC50 as the concentration that inhibits the measured activity by half.

In assay [1] the test system is HIV-1 RT mutant K103N. Set-up: method as in PMID 23217210. The following applies: previous study; cited from earlier work.
Assay [2] relates to HIV-1 RT mutant E40K. Kind of assay: single round infection assay, E40K. It is filed as cell-based. Conditions: for fold-change of IC50 of the mutant relative to WT: E40K vs WT. As for the experimental part:
(§1) The human osteosarcoma cell line, HOS, was obtained from Dr. Richard Schwartz (Michigan State University, East Lansing, MI) and grown in Dulbecco’s modified Eagle’s medium (Invitrogen, Carlsbad, CA) supplemented with 5 % (v/v) fetal bovine serum, 5 % newborn calf serum, and penicillin (50 units/ml) plus streptomycin (50 µg/ml; Quality Biological, Gaithersburg, MD). Virion production and single-round infectivity assays were used to determine antiviral activity (IC50 values) of the compounds as previously described.
(§2) pNLNgoMIVR-ΔEnv.LUC has been described previously. The RT open reading frame was removed from pNLNgoMIVR-ΔEnv.LUC (digestion with SpeI and SalI) and inserted between the SpeI and SalI sites of pBluescript II KS+. Using that construct as the wild-type template, we prepared the following HIV-1 RT mutants using the QuikChange II XL (Stratagene, La Jolla, CA) site-directed mutagenesis protocol kit: L100I, K103N, Y181C, Y188L, H221Y, K103N/Y181C, G190A, G190S, M230L, P236L, L100I/K103N, K103N/P225H, V106A/G190A/F227L, V106A, L234I, V106A/F227L, V106A/L234I, V106A/F227L/L234I, E40K, D67E, K101E, V111A, E138K, M184I, M184V, K101E/M184I, K101E/M184V, E138K/M184I, E138K/M184V, K101P, Y181I, and K101P/V179I. The following sense oligonucleotides were used with matching cognate antisense oligonucleotides (not shown) (Integrated DNA Technologies, Coralville, IA) in the mutagenesis: L100I, 5′-[…]-3′; L100I 2-103, 5′-[…]-3′; K103N, 5′-[…]-3′; Y181C, 5′-[…]-3′; Y188L, 5′-[…]-3′; H221Y, 5′-[…]-3′; G190A, 5′-[…]-3′; G190S, 5′-[…]-3′; P225H, 5′-[…]-3′; F227, 5′-[…]-3′; M230L, 5′-[…]-3′; P236L, 5′-[…]-3′; V106A, 5′-[…]-3′; L234I, 5′-[…]-3′; E40K, 5′-[…]-3′; D67E, 5′-[…]-3′; K101E, 5′-[…]-3′; V111A, 5′-[…]-3′; E138K, 5′-[…]-3′; M184I, 5′-[…]-3′; M184V, 5′-[…]-3′; K101P, 5′-[…]-3′; Y181I, 5′-[…]-3′; K101P/V179I, 5′-[…]-3′. The double mutants K103N/Y181C, K103N/P225H, and L100I/K103N were made using the previously generated K103N mutant and the appropriate oligonucleotides to add the second mutation, Y181C, P225, and L100I respectively. The double mutants V106A/F227L and V106A/L234I were prepared using the previously generated V106A mutant and the appropriate oligonucleotides to add the second mutation, F227L and L234I, respectively. The double mutants K101E/M184I and K101E/M184V were constructed using the previously generated K101E mutant and the appropriate oligonucleotides to add the second mutation, M184I and M184V, respectively. The double mutants E138K/M184I and E138K/M184V were constructed using the previously generated E138K mutant and the appropriate oligonucleotides for the second mutation, M184I and M184V, respectively. The triple mutant V106A/F227L/L234I was made using the previously generated V106A/F227L double mutant and the appropriate oligonucleotides for the third mutation, L234I. The triple mutant V106A/G190A/F227L was constructed in a series of steps using the previously generated V106A mutant and the appropriate oligonucleotides for the second mutation, G190A, to generate the double mutant V106A/G190A, and then the triple mutant was made using double mutant V106A/G190A and oligonucleotides for the third mutation, F227L. The DNA sequence of each construct was verified by DNA sequence determination. The sequences encoding the mutant RTs were then subcloned into pNLNgoMIVR-ΔEnv.LUC (between the KpnI and SalI sites) to produce the mutant HIV-1 constructs. These DNA sequences were also checked independently by DNA sequence determination.
(§3) 10.1186/s12977-016-0244-2 The IC50 values (nM) of RPV and the RPV analogs were determined against the NNRTI resistant mutants were measured by using a single round infection assay, n = 4. The concentrations (nM) are measured by reductions in luciferase reporter activity followed by the standard deviations. […]

Assay [3] deals with HIV-1 RT mutant V106A. The assay is described as follows: single round infection assay, V106A. It is filed as cell-based. Conditions: for IC50: ± SD, n=4; for fold-change of IC50 of the mutant relative to WT: V106A vs WT. Here is the method: as §1, §2, §3
Assay [4] deals with HIV-1 RT mutant K101P/V179I. The assay is described as follows: single round infection assay, K101P/V179I. Conditions: Human immunodeficiency virus 1. It is filed as cell-based.
In assay [5] the test system is HIV-1 RT mutant V106A/F227L/L234I. The assay is described as follows: single round infection assay, V106A/F227L/L234I. It counts as cell-based. Conditions: for fold-change of IC50 of the mutant relative to WT: V106A/F227L/L234I vs WT; for IC50: ± SD, n=4.
Assay [6] has as its system HIV-1 RT mutant H221Y. Set-up: method as in PMID 23217210. Conditions: previous study; cited from earlier work.
The test system of assay [7] is WT HIV-1. Conditions: previous study; cited from earlier work.
Assay [8] concerns HIV-1 RT mutant M230L. The assay is described as follows: single round infection assay, M230L. It counts as cell-based. Conditions: for IC50: ± SD, n=4, limit of detection 100 nM; for fold-change of IC50 of the mutant relative to WT: M230L vs WT.
In assay [9] the test system is HIV-1 RT mutant K101E. Kind of assay: single round infection assay, K101E. It is filed as cell-based. Conditions: for IC50: Human immunodeficiency virus 1, K101E, ± SD, n=4; for fold-change of IC50 of the mutant relative to WT: K101E vs WT. Here is the method: as §1, §2, §3
For assay [10], the system named is HIV-1 RT mutant K103N/P225H. The assay is described as follows: single round infection assay, K103N/P225H. It counts as cell-based. Conditions: for IC50: Human immunodeficiency virus 1; for fold-change of IC50 of the mutant relative to WT: K103N/P225H vs WT.
Assay [11] deals with HIV-1 RT mutant G190S. Kind of assay: single round infection assay, G190S. It is filed as cell-based. The following applies: Human immunodeficiency virus 1.
For assay [12], the system named is WT HIV-1. Kind of assay: single round infection luciferase assay, WT HIV-1. It is filed as cell-based. The following applies: Human immunodeficiency virus 1.
Assay [13] concerns HIV-1 RT mutant E138K/M184I. Kind of assay: single round infection assay, E138K/M184I. Conditions: for fold-change of IC50 of the mutant relative to WT: E138K/M184I vs WT. It counts as cell-based.
[14] abbreviates: Human immunodeficiency virus 1, M230L.

Where two headings read alike, the source gives them in different places. Bounds are passed on as bounds.

Regarding `Cc1cc(/C=C/C#N)cc(C)c1Nc1nc(Nc2ccc(F)cc2)c2nc[nH]c2n1` [compound 17], the IC50 was < 7 nM in [1]; 6.4 nM in assay [2] (Human immunodeficiency virus 1, E40K, ± SD, n=4); < 5 nM in assay [3] (Human immunodeficiency virus 1, V106A (selected by DOR)); 2.7 ± 0.64 nM in [3] (V106A (selected by DOR)); > 100 nM in assay [4]; < 7 nM in [6]. In addition, the IC50 is < 7 nM in [7]; 21.1 nM in [8] (setting [14]); 8.9 nM in assay [9]; 3.4 ± 0.2 nM in assay [10]; 0.74 ± 0.11 nM in [11]; 2.2 ± 0.4 nM in assay [12]. The IC50 in assay [13] (Human immunodeficiency virus 1, E138K/M184I, ± SD, n=4) was 5.2 ± 1.1 nM. For the same compound, the “fold-change of IC50 of the mutant relative to WT” value in assay [2] is on record as 3; in assay [3], 2; in [5], 6; in [8], 10; in [9] it was 4; in assay [10], < 2. Further, the “fold-change of IC50 of the mutant relative to WT” value in assay [13] turned out to be 2.
For the compound `Cc1cc(/C=C/C#N)cc(C)c1Nc1nc(Nc2ccc3scnc3c2)c2nc[nH]c2n1` [compound 21], the IC50 in assay [1] was < 7 nM; in [4] it was > 100 nM; in assay [5] (Human immunodeficiency virus 1, V106A/F227L/L234I (selected by DOR)) it was < 5 nM; in assay [5] (V106A/F227L/L234I (selected by DOR)), 4.3 ± 0.8 nM; in assay [6] it was < 7 nM; in assay [7], < 7 nM. The IC50 in assay [8] (setting [14]) was < 6.1 nM; in [8] (M230L) it was 6.1 ± 0.14 nM; in [9], 3.9 ± 0.14 nM; in [10], 1.4 ± 0.07 nM; in [11] it was 0.2 ± 0.04 nM; in assay [12] it was 0.41 ± 0.1 nM. The “fold-change of IC50 of the mutant relative to WT” value in assay [2] was 2; in assay [3] it was 3; in assay [5], 10; in assay [8], 15; in assay [9], 10; in [10], 3. Further, the “fold-change of IC50 of the mutant relative to WT” value in assay [13] worked out at 2.
